Experimental data reported in ChEMBL document CHEMBL3124795, “Synthesis and antiproliferative evaluation of 13-aryl-13H-benzo[g]benzothiazolo [2,3-b]quinazoline-5,14-diones” (Bioorg Med Chem Lett, 2014).

Tests used:
[1] = test system: HeLa; assay: Antiproliferative activity against human HeLa cells after 48 hrs by MTT assay; type: functional, cell-based
[2] = test system: HEK293; assay: Antiproliferative activity against human HEK293 cells after 48 hrs by MTT assay; type: cell-based; conditions: HEK293, 48 h
[3] = test system: HepG2; assay: Antiproliferative activity against human HepG2 cells after 48 hrs by MTT assay; type: functional, cell-based; conditions: HepG2, 48 h

For `COc1cc(C2C3=C(N=C4Sc5ccccc5N42)C(=O)c2ccccc2C3=O)cc(OC)c1OC` (configuration not stated), the IC50 [1] was 9.32 µM, the IC50 [2] was 11 µM and the IC50 [3] was 5.03 µM.
For `O=C1C2=C(C(=O)c3ccccc31)C(c1ccc(F)cc1)N1C(=N2)Sc2ccccc21` (configuration not stated), the IC50 [1] was 3.96 µM, the IC50 [2] was 15.1 µM and the IC50 [3] was 9.4 µM.
Work on `Cc1ccc(C2C3=C(N=C4Sc5ccccc5N42)C(=O)c2ccccc2C3=O)cc1` (configuration not stated) yielded an IC50 [1] of 3.81 µM, an IC50 [2] of 5.18 µM and an IC50 [3] of 1.7 µM.
For `COc1cccc2c1C(=O)c1c(O)c3c(c(O)c1C2=O)C[C@@](O)(C(=O)CO)C[C@@H]3O[C@H]1C[C@H](N)[C@H](O)[C@H](C)O1` [DOXORUBICIN], the IC50 [2] was 1.06 µM and the IC50 [3] was 1.15 µM.
Compound `O=C1C2=C(C(=O)c3ccccc31)C(c1ccc(Cl)cc1Cl)N1C(=N2)Sc2ccccc21` (configuration not stated) has an IC50 [1] of 2.68 µM, an IC50 [2] of 4.9 µM and an IC50 [3] of 3.56 µM.
`COc1ccc(OC)c(C2C3=C(N=C4Sc5ccccc5N42)C(=O)c2ccccc2C3=O)c1` (configuration not stated) showed an IC50 [1] of 125 µM, an IC50 [2] greater than 200 µM and an IC50 [3] of 190 µM.
`O=C1C2=C(C(=O)c3ccccc31)C(c1ccccc1)N1C(=N2)Sc2ccccc21` (configuration not stated) gave an IC50 [1] of 2.99 µM, an IC50 [2] of 4.16 µM and an IC50 [3] of 1.66 µM.
For `O=C1C2=C(C(=O)c3ccccc31)C(c1cccs1)N1C(=N2)Sc2ccccc21` (configuration not stated), the IC50 [1] was 4.23 µM, the IC50 [2] was 5.9 µM and the IC50 [3] was 5.76 µM.
With `O=C1C2=C(C(=O)c3ccccc31)C(c1ccc([N+](=O)[O-])cc1)N1C(=N2)Sc2ccccc21` (configuration not stated) the IC50 [1] was 29 µM, the IC50 [2] was 50.3 µM and the IC50 [3] was 14.3 µM.
With `O=C1C2=C(C(=O)c3ccccc31)C(c1ccc(Cl)cc1)N1C(=N2)Sc2ccccc21` (configuration not stated) the IC50 [1] was 15.6 µM, the IC50 [2] was 25.9 µM and the IC50 [3] was 23.4 µM.
`O=C1C2=C(C(=O)c3ccccc31)C(c1ccco1)N1C(=N2)Sc2ccccc21` (configuration not stated) showed an IC50 [1] of 6.62 µM, an IC50 [2] of 10.1 µM and an IC50 [3] of 9.07 µM.
